IC50 data for one molecule are collected here from BindingDB's records for doi:10.1021/acsmedchemlett.9b00264 (Xiamen University, 2019).

By IC50 is commonly meant the point on the concentration scale where inhibition reaches its midpoint.

Assay [1] can be described thus: Inhibition of JMJD6 in human HeLa cells assessed as decrease in cell proliferation measured after 72 hrs by CellTiter 96 AQueous one solution cell proliferation assay.
A short description of assay [2]: Inhibition of JMJD6 in human […] cells assessed as decrease in cell proliferation measured after 72 hrs by CellTiter 96 AQueous one solution cell proliferation assay.

Take `Cc1ccc2oc(=O)c(-c3nc4cnccc4[nH]3)cc2c1`: the values for the IC50 in assay [1] and in assay [2] were 2.44 µM and 10.2 µM, respectively.
